Patent US9796733B2, “Imidazo-pyrazine derivatives useful as soluble guanylate cyclase activators” (Merck Sharp & Dohme Corp., priority 2014, dated 2017)

Legend:
[1] = test system: Spontaneously hypertensive rats (SHR); assay: Acute efficacy in spontaneously hypertensive rats (SHR): telemetry blood pressure lowering after a single oral dose; type: in vivo, rat
Text: Acute Efficacy in Spontaneously Hypertensive Rats (SHR)
Spontaneously hypertensive rats (SHR, male, Charles River) were implanted with DSI TA11PA-C40 telemetry device (Data Sciences, Inc., St. Paul, Minn.) under isoflurane or ketamine/metomidine anesthesia. The telemetry unit catheter was inserted into the descending aorta via the femoral artery and the telemetry device was implanted subcutaneously in the left flank area. Animals were allowed to recover from surgery for 14 days before the start of any studies. Blood pressure, heart rate, and activity signals from conscious, freely moving rats were recorded continuously for 30 seconds every 10 minutes. On the day prior to administration of compound, a single oral dose of vehicle (10% transcutol/20% Cremophor/70% water) was administered to all animals to establish baseline control data. The blood pressure lowering efficacy of compound (PO) or vehicle was evaluated following a single oral gavage. Data were collected as hourly averages, and changes in blood pressure were calculated by subtracting control baseline data on an hourly basis. Animals were maintained on normal diet with a 12 hour light-dark cycle.
Maximum peak decreases of systolic blood pressure (SBP) in SHR at a particular P.O. dose (mpk milligrams per kilogram) for the following representative compounds are provided. Category A=SBP in SHRs<20 mmHg; Category B=SBP in SHRs 20-40 mmHg; Category C=SBP in SHRs>40 mmHg

sGC α1/β1 heterodimer = target: T1, sGC α1/β1 heterodimer (Homo sapiens, UniProt Q02108+Q02153); assay: Cell-based sGC functional assay (CASA assay): cGMP generation in CHO-K1/sGC cells, HTRF detection; conditions: for Emax: CHO-K1, percent activation relative to standard Compound A in CHO-K1/sGC cells, read-out: % Act.; for EC50: inflection point (IP) of cGMP generation in CHO-K1/sGC cells, 4P fit, activity expressed as percentage of Compound A
T1 construct: expressed in transfected cells; host or cells: CHO-K1 (clone #7, CHO-K1/sGC)
T1 sequence (Q02108 1-690): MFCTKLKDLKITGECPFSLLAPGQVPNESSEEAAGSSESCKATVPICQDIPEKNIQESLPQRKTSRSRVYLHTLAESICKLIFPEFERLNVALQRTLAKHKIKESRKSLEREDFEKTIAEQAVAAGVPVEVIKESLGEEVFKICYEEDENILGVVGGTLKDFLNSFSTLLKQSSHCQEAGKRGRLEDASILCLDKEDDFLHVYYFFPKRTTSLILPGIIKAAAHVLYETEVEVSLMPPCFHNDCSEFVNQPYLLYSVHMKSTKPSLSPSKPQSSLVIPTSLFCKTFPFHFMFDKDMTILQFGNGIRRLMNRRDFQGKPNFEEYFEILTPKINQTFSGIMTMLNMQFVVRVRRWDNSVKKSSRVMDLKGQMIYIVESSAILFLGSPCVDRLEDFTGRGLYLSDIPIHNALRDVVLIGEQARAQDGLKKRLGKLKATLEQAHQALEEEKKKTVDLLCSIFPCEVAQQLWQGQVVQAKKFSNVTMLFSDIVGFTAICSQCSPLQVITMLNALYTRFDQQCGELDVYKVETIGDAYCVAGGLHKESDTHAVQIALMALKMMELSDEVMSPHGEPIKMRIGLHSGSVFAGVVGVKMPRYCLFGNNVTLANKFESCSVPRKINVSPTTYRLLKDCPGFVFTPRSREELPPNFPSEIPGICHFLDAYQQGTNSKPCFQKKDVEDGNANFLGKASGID
T1 sequence (Q02153 1-619): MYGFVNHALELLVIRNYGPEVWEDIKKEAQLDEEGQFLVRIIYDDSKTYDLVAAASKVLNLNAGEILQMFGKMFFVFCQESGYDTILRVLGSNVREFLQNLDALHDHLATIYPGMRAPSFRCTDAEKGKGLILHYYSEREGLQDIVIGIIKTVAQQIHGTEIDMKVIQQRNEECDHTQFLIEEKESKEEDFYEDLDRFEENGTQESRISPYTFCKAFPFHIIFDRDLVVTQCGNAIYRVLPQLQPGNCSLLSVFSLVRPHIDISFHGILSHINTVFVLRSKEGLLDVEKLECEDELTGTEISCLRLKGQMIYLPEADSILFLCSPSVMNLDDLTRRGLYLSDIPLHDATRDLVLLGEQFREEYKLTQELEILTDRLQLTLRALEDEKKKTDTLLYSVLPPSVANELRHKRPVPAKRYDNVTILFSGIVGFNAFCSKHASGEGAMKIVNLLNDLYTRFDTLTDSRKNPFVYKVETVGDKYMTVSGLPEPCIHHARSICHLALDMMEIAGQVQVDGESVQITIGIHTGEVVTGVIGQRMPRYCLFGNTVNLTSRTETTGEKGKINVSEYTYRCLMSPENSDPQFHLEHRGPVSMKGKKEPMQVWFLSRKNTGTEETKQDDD
Method in brief: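 Stable CHO-K1/sGC cells in EBSS buffer with 5 mM MgCl2, 0.05% BSA and 0.5 mM IBMX were incubated with compound (2.5% DMSO final) ±1 μM DETA-NO for 1 hr at 37° C. cGMP was measured by HTRF. Activation is expressed as % of reference HDA Compound A maximum, with IP and max fold induction from a 4P fit.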

Emax (sGC α1/β1 heterodimer) | EC50 (sGC α1/β1 heterodimer) | SMILES | Maximum peak decrease of systolic blood pressure (SBP) in SHR, Cat. ([1]; P.O. 3.0 mpk) | Maximum peak decrease of systolic blood pressure (SBP) in SHR, Cat. ([1]; P.O. 1.0 mpk) | Maximum peak decrease of systolic blood pressure (SBP) in SHR, Cat. ([1]; P.O. 0.3 mpk)
148% | 949 nM | Nc1nc(-c2cn3ccnc3c(CCC(F)(F)F)n2)nc2c1C(c1ccc(F)cc1)(C1CCC1)C(=O)N2 (single isomer, unassigned) [Example 345B, 4-amino-5-cyclobutyl-5-(4-fluorophenyl)-2-(8-(3,3,3-trifluoropropyl)imidazo[1,2-a]pyrazin-6-yl)-5H-pyrrolo[2,3-d]pyrimidin-6(7H)-one] | A (Category A=SBP in SHRs<20 mmHg) | – | –
137% | 170 nM | Nc1nc(-c2cn3ccnc3c(CCCC(F)(F)F)n2)nc2c1C(c1cc(C(F)(F)F)ccn1)(C1CC1)C(=O)N2 (single isomer, unassigned) [Example 354B, 4-amino-5-cyclopropyl-2-(8-(4,4,4-trifluorobutyl)imidazo[1,2-a]pyrazin-6-yl)-5-(4-(trifluoromethyl)pyridin-2-yl)-5H-pyrrolo[2,3-d]pyrimidin-6(7H)-one] | – | A (Category A=SBP in SHRs<20 mmHg) | –
126% | 202 nM | CCCCc1nc(-c2nc(N)c3c(n2)NC(=O)C3(c2cccc(C(F)(F)F)n2)C2CC2)cn2ccnc12 (single isomer, unassigned) [Example 355A, 4-amino-2-(8-butylimidazo[1,2-a]pyrazin-6-yl)-5-cyclopropyl-5-(6-(trifluoromethyl)pyridin-2-yl)-5H-pyrrolo[2,3-d]pyrimidin-6(7H)-one] | – | A (Category A=SBP in SHRs<20 mmHg) | –
92% | 373 nM | Nc1nc(-c2cn3ccnc3c(CCCC(F)(F)F)n2)nc2c1C(c1ccc(C(F)F)cn1)(C1CC1)C(=O)N2 (single isomer, unassigned) [Example 378B, 4-amino-5-cyclopropyl-5-(5-(difluoromethyl)pyridin-2-yl)-2-(8-(4,4,4-trifluorobutyl)imidazo[1,2-a]pyrazin-6-yl)-5H-pyrrolo[2,3-d]pyrimidin-6(7H)-one] | – | B (Category B=SBP in SHRs 20-40 mmHg) | –
137% | 45 nM | CCCCc1nc(-c2nc(N)c3c(n2)NC(=O)C3(C)c2ccc(F)cc2)cn2ccnc12 (stereo not drawn) [Example 8A, 4-amino-2-(8-butylimidazo[1,2-a]pyrazin-6-yl)-5-(4-fluorophenyl)-5-methyl-5H-pyrrolo[2,3-d]pyrimidin-6(7H)-one] | – | – | C (Category C=SBP in SHRs>40 mmHg)
120% | 56 nM | CCCCc1nc(-c2nc(N)c3c(n2)NC(=O)C3(C)c2ccc(Cl)cc2)cn2ccnc12 (stereo not drawn) [Example 10A, 4-amino-2-(8-butylimidazo[1,2-a]pyrazin-6-yl)-5-(4-chlorophenyl)-5-methyl-5H-pyrrolo[2,3-d]pyrimidin-6(7H)-one] | – | – | C (Category C=SBP in SHRs>40 mmHg)
135% | 46 nM | CC(C)CCc1nc(-c2nc(N)c3c(n2)NC(=O)C3(C)c2ccc(F)cn2)cn2ccnc12 (stereo not drawn) [Example 11B, 4-amino-5-(5-fluoropyridin-2-yl)-2-(8-isopentylimidazo[1,2-a]pyrazin-6-yl)-5-methyl-5H-pyrrolo[2,3-d]pyrimidin-6(7H)-one] | – | B (Category B=SBP in SHRs 20-40 mmHg) | –
113% | 111 nM | CC(C)CCc1nc(-c2nc(N)c3c(n2)NC(=O)C3(C)c2ccc(Cl)cc2)cn2ccnc12 (stereo not drawn) [Example 14A, 4-amino-5-(4-chlorophenyl)-2-(8-isopentylimidazo[1,2-a]pyrazin-6-yl)-5-methyl-5H-pyrrolo[2,3-d]pyrimidin-6(7H)-one] | – | C (Category C=SBP in SHRs>40 mmHg) | –
119% | 82 nM | CC1(c2ccc(Cl)cc2)C(=O)Nc2nc(-c3cn4ccnc4c(C4CCC4)n3)nc(N)c21 (stereo not drawn) [Example 15A, 4-amino-5-(4-chlorophenyl)-2-(8-cyclobutylimidazo[1,2-a]pyrazin-6-yl)-5-methyl-5H-pyrrolo[2,3-d]pyrimidin-6(7H)-one] | – | C (Category C=SBP in SHRs>40 mmHg) | –
117% | 134 nM | CCCCc1nc(-c2nc(N)c3c(n2)NC(=O)C3(C)c2ccc(F)cn2)cn2ccnc12 (stereo not drawn) [Example 16B, 4-amino-2-(8-butylimidazo[1,2-a]pyrazin-6-yl)-5-(5-fluoropyridin-2-yl)-5-methyl-5H-pyrrolo[2,3-d]pyrimidin-6(7H)-one] | – | – | C (Category C=SBP in SHRs>40 mmHg)
108% | 231 nM | CC(C)Cc1nc(-c2nc(N)c3c(n2)NC(=O)C3(C)c2ccc(Cl)cc2)cn2ccnc12 (stereo not drawn) [Example 20A, 4-amino-5-(4-chlorophenyl)-2-(8-isobutylimidazo[1,2-a]pyrazin-6-yl)-5-methyl-5H-pyrrolo[2,3-d]pyrimidin-6(7H)-one] | – | C (Category C=SBP in SHRs>40 mmHg) | –
81% | 253 nM | CCCc1nc(-c2nc(N)c3c(n2)NC(=O)C3(c2ccc(Cl)cc2)C2CC2)cn2ccnc12 (stereo not drawn) [Example 26B, 4-amino-5-(4-chlorophenyl)-5-cyclopropyl-2-(8-propylimidazo[1,2-a]pyrazin-6-yl)-5H-pyrrolo[2,3-d]pyrimidin-6(7H)-one] | B (Category B=SBP in SHRs 20-40 mmHg) | – | –
137% | 58 nM | CC1(c2nnc(C3CC3)s2)C(=O)Nc2nc(-c3cn4ccnc4c(Cc4ccc(F)cc4)n3)nc(N)c21 (stereo not drawn) [Example 32A, 4-amino-5-(5-cyclopropyl-1,3,4-thiadiazol-2-yl)-2-(8-(4-fluorobenzyl)imidazo[1,2-a]pyrazin-6-yl)-5-methyl-5H-pyrrolo[2,3-d]pyrimidin-6(7H)-one] | – | B (Category B=SBP in SHRs 20-40 mmHg) | –
135% | 129 nM | Cc1nnc(C2(C)C(=O)Nc3nc(-c4cn5ccnc5c(Cc5ccc(F)cc5)n4)nc(N)c32)s1 (stereo not drawn) [Example 33A, 4-amino-2-(8-(4-fluorobenzyl)imidazo[1,2-a]pyrazin-6-yl)-5-methyl-5-(5-methyl-1,3,4-thiadiazol-2-yl)-5H-pyrrolo[2,3-d]pyrimidin-6(7H)-one] | – | B (Category B=SBP in SHRs 20-40 mmHg) | –
150% | 339 nM | CC1(c2nnc(C3CC3)o2)C(=O)Nc2nc(-c3cn4ccnc4c(Cc4ccc(F)cc4)n3)nc(N)c21 (stereo not drawn) [Example 34A, 4-amino-5-(5-cyclopropyl-1,3,4-oxadiazol-2-yl)-2-(8-(4-fluorobenzyl)imidazo[1,2-a]pyrazin-6-yl)-5-methyl-5H-pyrrolo[2,3-d]pyrimidin-6(7H)-one] | B (Category B=SBP in SHRs 20-40 mmHg) | – | –
